Source: patent publication US11590134B2, “Aminopyrimidine amide autophagy inhibitors and methods of use thereof” (Deciphera Pharmaceuticals, LLC, priority 2019, dated 2023)

Assays:
[1] = tested on: ULK kinase substrate ATG13 (phospho-Serine 318 ATG13) in MiaPaCa-2 cells; experiment: pATG13 ELISA in mutant KRas MiaPaCa-2 cells in combination with trametinib; type: cell-based; conditions: MiaPaCa-2 human pancreatic cancer cells, with 250 nM trametinib, overnight
Method: (§1) MiaPaCa-2 human pancreatic cancer cells (10000 cells/well) were added to a 384-well tissue-culture treated plate in 50 μL of pre-warmed DMEM medium supplemented with 10% characterized fetal bovine serum (Invitrogen, Carlsbad, Calif.), 100 units/mL penicillin G, 100 μg/mL streptomycin, and 2.5% Horse Serum and allowed to grow overnight at 37° C., 5% CO2, and 95% humidity. The following day, 10 μL of media containing trametinib or DMSO as a control was added to wells. The final concentration of trametinib in wells was 250 nM. A dose response of a test compound (0.6 μL per well) was added. DMSO (0.6 μL) was added to control wells. The plate was briefly shaken to mix wells and then incubated at 37° C. overnight. The next day, the media was aspirated and cells were washed with Dulbecco's Phosphate Buffered Saline (Gibco). Cells were lysed using MPER lysis buffer (Pierce, Rockford, Ill.) containing Halt Phosphatase and Protease Inhibitors (Pierce, Rockford, Ill.) and Phosphatase inhibitor cocktail 2 (Sigma, St. Louis, Mo.) at 4° C. for 10 minutes with shaking.
(§2) Cellular levels of phospho-Serine 318 ATG13 (pATG13) were measured via an ELISA method. Total ATG13 Antibody (Cell Signaling Cat #13273) was used to coat the wells. The plate was incubated at 4° C. overnight and washed with ELISA wash buffer (Biolegend Cat #421601). The wells were then blocked with assay diluent (Biolegend Cat #421203) for 1 hour at room temperature. Plate wells were washed with ELISA wash buffer. Cell lysate was added to wells and incubated at room temperature for 2 hours. Plate wells were washed with ELISA wash buffer. Biotinylated pS318-ATG13 antibody (Rockland Immunochemicals Cat #600-401-C49) was diluted in assay diluent and added to each well and incubated at room temperature for 1 hour. Plate wells were washed with ELISA wash buffer. Streptavidin linked to horseradish peroxidase (Thermo Fisher Cat #21140) was diluted in assay diluent and added to each well and incubated at room temperature for 1 hour. Plate wells were washed with ELISA wash buffer. High sensitivity TMB substrate (Biolegend Cat #421101) was added to each well and incubated at room temperature for 20 minutes. The reaction was stopped with 2N Sulfuric Acid. The plate was analyzed at on a plate reader measuring absorbance at 450 nm and 540 nm (background). Signal was calculated by first subtracting the background absorbance at 540 nm from the absorbance at 450 nm for each well. Next, the background corrected absorbance at 450 nm from blank wells was subtracted from test wells. Data was compared to control wells to determine % ATG13 phosphorylation. GraphPad Prism was used to calculate IC50 values.

[2] = target: T1, ULK2 kinase (Homo sapiens, UniProt Q8IYT8); experiment: Biochemical assay for ULK2 (coupled pyruvate kinase/lactate dehydrogenase assay); conditions: 9.7 nM ULK2 (residues 1-306), myelin basic protein substrate, 1 mM ATP; read-out: ULK2.2
T1 construct: purchased Eurofins 14-772
T1 sequence (Q8IYT8 with tags, fused parts or gaps): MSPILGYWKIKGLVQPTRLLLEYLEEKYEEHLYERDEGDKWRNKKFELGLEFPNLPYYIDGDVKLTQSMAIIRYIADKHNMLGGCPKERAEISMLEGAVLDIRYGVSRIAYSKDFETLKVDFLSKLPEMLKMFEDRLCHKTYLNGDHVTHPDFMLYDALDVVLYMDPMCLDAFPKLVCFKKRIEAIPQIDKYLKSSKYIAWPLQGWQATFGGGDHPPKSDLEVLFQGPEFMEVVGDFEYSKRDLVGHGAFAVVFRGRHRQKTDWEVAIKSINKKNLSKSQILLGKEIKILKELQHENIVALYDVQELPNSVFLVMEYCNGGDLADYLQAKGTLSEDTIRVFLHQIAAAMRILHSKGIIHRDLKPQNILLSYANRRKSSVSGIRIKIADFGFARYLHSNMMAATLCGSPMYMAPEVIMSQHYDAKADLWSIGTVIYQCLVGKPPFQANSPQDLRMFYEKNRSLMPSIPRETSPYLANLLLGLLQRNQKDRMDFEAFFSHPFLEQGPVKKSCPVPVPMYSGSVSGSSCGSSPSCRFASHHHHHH
Method: (§3) Activity of ULK2 kinase was determined spectroscopically using a coupled pyruvate kinase/lactate dehydrogenase assay that continuously monitors the ATP hydrolysis-dependent oxidation of NADH (e.g., Schindler et al. Science (2000) 289: 1938-1942). Assays were conducted in 384-well plates (100 uL final volume) using 9.7 nM ULK2 (Eurofins CAT #14-772), 0.25 mg/mL myelin basic protein, 1.5 units pyruvate kinase, 2.1 units lactate dehydrogenase, 1 mM phosphoenol pyruvate, 0.28 mM NADH and 1 mM ATP in assay buffer (100 mM Tris, pH 7.5, 15 mM MgCl2, 0.5 mM DTT, 0.1% octyl-glucoside, 0.002% (w/v) BSA, and 0.002% Triton X-100). Inhibition of ULK2 was measured by adding serial diluted test compound (final assay concentration of 1% DMSO). A decrease in absorption at 340 nm was monitored continuously for 6 hours at 30° C. on a multi-mode microplate reader (BioTek). The reaction rate was calculated using the 2-3 h time frame. The reaction rate at each concentration of compound was converted to percent inhibition using controls (i.e. reaction with no test compound and reaction with a known inhibitor) and IC50 values were calculated by fitting a four-parameter sigmoidal curve to the data using Prism (GraphPad software).

[3] = tested on: ULK kinase substrate ATG13 (phospho-Serine 318 ATG13) in A549 cells; experiment: pATG13 ELISA in mutant KRas A549 cells in combination with trametinib; type: cell-based; conditions: A549 (KRAS mutant) human lung cancer cells, with 250 nM trametinib, overnight
Method: as §1, with “A549 (KRAS mutant)” for “MiaPaCa-2”, “lung” for “pancreatic”, “(6,000” for “(10000”, “G, and” for “G,”, “streptomycin” for “streptomycin, and 2.5% Horse Serum”
as §2

[4] = target: T2, ULK1 kinase (Homo sapiens, UniProt O75385); experiment: Biochemical assay for ULK1.2 (coupled pyruvate kinase/lactate dehydrogenase assay); conditions: 19 nM ULK1 (residues 1-314), myelin basic protein substrate, 1 mM ATP
T2 construct: purchased Eurofins 14-959
T2 sequence (O75385 with tags, fused parts or gaps): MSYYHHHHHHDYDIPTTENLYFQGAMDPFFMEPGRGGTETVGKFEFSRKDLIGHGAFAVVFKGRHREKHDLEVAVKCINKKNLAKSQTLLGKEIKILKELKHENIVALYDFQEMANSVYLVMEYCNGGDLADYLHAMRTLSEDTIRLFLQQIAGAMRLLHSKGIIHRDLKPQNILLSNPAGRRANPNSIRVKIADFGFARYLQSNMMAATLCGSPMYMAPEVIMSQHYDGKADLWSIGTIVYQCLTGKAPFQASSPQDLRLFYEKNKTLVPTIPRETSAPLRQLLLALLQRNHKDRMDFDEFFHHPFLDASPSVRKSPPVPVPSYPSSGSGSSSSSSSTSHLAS
Method: as §3, with “ULK1” for “ULK2”, “19” for “9.7”, “#14-959),” for “#14-772),”

IC50 [1]: 10 to 100 nM
IC50 [2]: 25 to 100 nM
IC50 [3]: 100 to 300 nM
IC50 [4]: 1 to 25 nM
SMILES: CCc1cc(N2CCN(C)CC2)ccc1Nc1ncc(C(F)(F)F)c(NCCCNC(=O)C2CCC2)n1 [Example 1, N-(3-((2-((2-ethyl-4-(4-methylpiperazin-1-yl)phenyl)amino)-5-(trifluoromethyl)pyrimidin-4-yl)amino)propyl)cyclobutanecarboxamide]
